Laboratory results published in US12649732B2, “Polymorphs of (R)-N-(5-(5-isopropyl-1,2,4-oxadiazol-3-yl)-2,3-dihydro-1H-inden-1-yl)-2-methyl-2H-tetrazole-5-carboxamide” (Cytokinetics, Inc., priority 2019, dated 2026).

Key:
Format in all cases: physicochemical
[1] = Competitive slurry experiments between Form I and Form II
Protocol: Competitive slurry experiments between Form I and Form II in different solvents were conducted. Form I was suspended in the selected solvents at both 50° C. and 5° C. and stirred for a minimum of 1 hour before filtration to create a saturated solution. Form I (ca. 10 mg) and Form II (ca. 10 mg) were combined in a HPLC vial. Each sample was treated with 0.5 ml of the selected saturated solution. The samples were stirred at the selected temperature for 6 days. Solids obtained were filtered and dried under suction for a few minutes prior to characterization. Samples were slightly wet during XRPD analysis.

[2] = Dynamic Vapor Sorption (DVS); settings: 0-90% RH range, 25° C.
Protocol: DVS data were obtained using a SMS DVS Intrinsic moisture sorption analyzer, controlled by DVS Intrinsic Control software. The sample temperature was maintained at 25° C. by the instrument controls. The humidity was controlled by mixing streams of dry and wet nitrogen, with a total flow rate of 200 ml/min. The relative humidity was measured by a calibrated Rotronic probe (dynamic range of 1.0-100% RH), located near the sample. The weight change, (mass relaxation) of the sample as a function of % RH was constantly monitored by a microbalance (accuracy ±0.005 mg).
Typically, 5-30 mg of sample was placed in a tared mesh stainless steel basket under ambient conditions. The sample was loaded and unloaded at 40% RH and 25° C. (typical room conditions). A moisture sorption isotherm was performed as outlined below (2 scans per complete cycle). The standard isotherm was performed at 25° C. at 10% RH intervals over a 0-90% RH range. Typically, a double cycle (4 scans) was carried out. Data analysis was carried out within Microsoft Excel using the DVS Analysis Suite.

[3] = Stability study: XRPD after storage for 7 days
Protocol: Polymorphic Form I of (R)—N-(5-(5-isopropyl-1,2,4-oxadiazol-3-yl)-2,3-dihydro-1H-inden-1-yl)-2-methyl-2H-tetrazole-5-carboxamide was analyzed by XRPD, DSC, TGA, and DVS. […] As shown in the TGA graph, no weight loss prior to degradation, which starts at about 230° C., was observed. […] Chemical stability study of Form I was also performed. XRPD patterns were measured after storage of samples of Form I for 7 days at 40° C./75% RH and 25° C./97% RH.
Polymorphic Form I of (R)—N-(5-(5-isopropyl-1,2,4-oxadiazol-3-yl)-2,3-dihydro-1H-inden-1-yl)-2-methyl-2H-tetrazole-5-carboxamide (500 mg) was suspended in n-propyl acetate (50 vol) and stirred at 50° C. After 10 minutes, a clear solution was obtained. The solvent was removed under reduced pressure (100 ml round-bottom flask). The solid obtained was analyzed by XRPD and determined as a mixture of Form I and Form II. The solid was suspended in n-propyl acetate (40 vol) and stirred at 50° C. After 10 minutes, a clear solution was obtained. The solvent was removed under reduced pressure in a larger flask (250 ml round-bottom flask). The resulting solid was analyzed by XRPD, DSC, TGA, and GVS and determined as Form II. […] As shown in the DSC graph (sample heated at 10° C./min), an endotherm onset at about 133° C., an exotherm onset at about 135° C., and an endotherm onset at about 152° C. were observed. As shown in the TGA graph, a weight loss of about 1.1% between about 83° C. and about 160° C. prior to degradation was observed. […] Chemical stability study of Form II was also performed. XRPD patterns were measured after storage of samples of Form II for 7 days at 40° C./75% RH and 25° C./97% RH.

[4] = Polymorph screening (isothermal maturation, liquid assisted grinding, temperature cycling maturation)
Protocol: Polymorphic Form I of (R)—N-(5-(5-isopropyl-1,2,4-oxadiazol-3-yl)-2,3-dihydro-1H-inden-1-yl)-2-methyl-2H-tetrazole-5-carboxamide (ca. 2 g) was suspended in MeCN:H2O (90 vol) and stirred at 50° C. for 40 minutes. The clear solution was filtered and flash frozen in a dry ice/acetone bath and placed for lyophilisation. The solid isolated was analyzed by XRPD and determined to be poorly crystalline Form I.
Poorly crystalline Form I (ca. 15 mg) was dispensed into HPLC vials. Solvent was added (10 vol) and the samples were shaken/stirred at 50° C. After 6 days, suspensions were filtered through a Millipore filter plate and dried under suction for 30 minutes prior to XPRD analysis.
Polymorphic Form I of (R)—N-(5-(5-isopropyl-1,2,4-oxadiazol-3-yl)-2,3-dihydro-1H-inden-1-yl)-2-methyl-2H-tetrazole-5-carboxamide was dispensed into HPLC vials and two stainless steel grinding balls (3 mm diameter) added. Solvent was added (10 μl) and the samples were subjected to grinding on a Fritsch planetary mill (500 rpm, 2 hour duration). Solids obtained post grinding were analyzed by XRPD. As shown below in Table 5, Form I was obtained from all of the experiments.
Polymorphic Form I of (R)—N-(5-(5-isopropyl-1,2,4-oxadiazol-3-yl)-2,3-dihydro-1H-inden-1-yl)-2-methyl-2H-tetrazole-5-carboxamide (20 mg) was dispensed into HPLC vials. The selected solvent was added (5 vol) to each sample then placed for maturation (RT/50° C., cycled with 4 hours at each temperature). After 2 days, the samples were removed from the maturation chamber. Suspensions were filtered through a Millipore plate and dried under suction for 20 minutes prior to XRPD analysis. Solutions obtained were treated with increasing aliquots of anti-solvent until a suspension was obtained or maximum of 5 eq. had been added. Samples were shaken at 25° C. for 30 minutes. Suspensions obtained after shaking were filtered through a Millipore plate and dried under suction for 20 minutes prior to XRPD analysis. Solutions and samples containing a small amount of solid were shaken at 25° C. overnight with any solutions obtained allowed to evaporate at RT. […]

SMILES | XRPD analysis (form after slurry) ([1]; Sample 01, MeCN, 5 °C, 6 days) | XRPD analysis (form after slurry) ([1]; Sample 02, n-propyl acetate, 5 °C, 6 days) | XRPD analysis (form after slurry) ([1]; Sample 03, MEK, 5 °C, 6 days) | XRPD analysis (form after slurry) ([1]; Sample 04, H2O:MeCN (25:75), 5 °C, 6 days) | XRPD analysis (form after slurry) ([1]; Sample 05, H2O:MeCN (75:25), 5 °C, 6 days) | XRPD analysis (form after slurry) ([1]; Sample 06, MeCN, 50 °C, 6 days) | XRPD analysis (form after slurry) ([1]; Sample 07, n-propyl acetate, 50 °C, 6 days) | XRPD analysis (form after slurry) ([1]; Sample 09*, H2O:MeCN (25:75), 50 °C, 6 days, also treated with neat solvent) | XRPD analysis (form after slurry) ([1]; Sample 10, H2O:MeCN (75:25), 50 °C, 6 days) | XRPD analysis (form after slurry) ([1]; Sample 11, MEK, 50 °C, 6 days (repeat of 08)) | XRPD analysis (form after slurry) ([1]; Sample 12, H2O:MeCN (25:75), 50 °C, 6 days (repeat of 09)) | moisture uptake as determined by DVS [2] | changes in XRPD patterns after storage ([3]; 7 days at 25° C./97% RH) | changes in XRPD patterns after storage ([3]; 7 days at 40° C./75% RH) | relative stability of form ([4]; isothermal maturation, 50° C., 6 days, various solvents) | relative stability of form ([4]; liquid assisted grinding, 500 rpm, 2 hour, various solvents) | relative stability of form ([4]; temperature cycling maturation RT/50° C., 2 days, and anti-solvent screen)
CC(C)c1nc(-c2ccc3c(c2)CC[C@H]3NC(=O)c2nnn(C)n2)no1 [Form I and Form II, (R)—N-(5-(5-isopropyl-1,2,4-oxadiazol-3-yl)-2,3-dihydro-1H-inden-1-yl)-2-methyl-2H-tetrazole-5-carboxamide] | Form 1 | Form 1 | Form 1 | Form 1 | Form 1 | Form I | Form I | Form I | Form I | Form I | Form I | – | – | – | – | – | –
CC(C)c1nc(-c2ccc3c(c2)CC[C@H]3NC(=O)c2nnn(C)n2)no1 [Form I, (R)—N-(5-(5-isopropyl-1,2,4-oxadiazol-3-yl)-2,3-dihydro-1H-inden-1-yl)-2-methyl-2H-tetrazole-5-carboxamide] | – | – | – | – | – | – | – | – | – | – | – | 0.36 % w/w | No significant changes | No significant changes | most stable form | most stable form | most stable form
CC(C)c1nc(-c2ccc3c(c2)CC[C@H]3NC(=O)c2nnn(C)n2)no1 [Form II, (R)—N-(5-(5-isopropyl-1,2,4-oxadiazol-3-yl)-2,3-dihydro-1H-inden-1-yl)-2-methyl-2H-tetrazole-5-carboxamide] | – | – | – | – | – | – | – | – | – | – | – | 0.24 % w/w | No significant changes | No significant changes | – | – | –
